# Experimental data published in patent publication US20180021485A1, “METHOD FOR MANUFACTURING DRUG-CONTAINING BIODEGRADABLE FIBER MATERIAL BY ELECTROSPINNING” (ORTHOREBIRTH CO., LTD., priority 2015, published 2018).
# Legend:
# [1] = Direct intraperitoneal administration of carboplatin to mice; type: in vivo, mouse; details: same amount of carboplatin as contained in the cotton-like carrier
# Procedure: On the other hand, the mice to which PBS was administered lived three weeks or more after administration, and were therefore euthanized in the fourth week after administration.
# [2] = LD50 of carboplatin intraperitoneally administered to mice; type: in vivo; details: mouse having a body weight of 30 g
# [3] = intraperitoneally administered to mice; cited from earlier work
compound,measurement,setting,value
"N.N.O=C([O-])C1(C(=O)[O-])CCC1.[Pt+2] [carboplatin, cis-Diamine(1,1-cyclobutanedicarboxylato)platinum (II)]",survival after direct intraperitoneal administration,[1]; healthy mice,all the mice died within several days
same,findings at dissection after direct intraperitoneal administration,[1],The intestines were necrosed and became dysfunctional
same,LD50 per mouse,[2],4.5 mg
same,LD50 (50% lethal dose),[3],150 mg/kg
